In patent publication US10570121B2, “Substituted dihydroisoquinolinone compounds” (priority 2014, dated 2020):
Read-outs that look alike come from different tables or passages of the source.

Assays:
Type in all cases: biochemical
WT EZH2 [1] = target: T1, WT EZH2 (Homo sapiens (Human), UniProt Q15910); assay: WT EZH2 nucleosome assay; settings: PRC2 4-protein complex 4 nM, 1.5 μM SAM, HeLa oligonucleosomes
Description: The genes for EZH2, EED, SUZ12, and RBBP4 proteins were cloned into pBacPAK9 vectors (Clontech). RBBP4 was FLAG tagged on the N-terminal end. The baculovirus expressions of these proteins were used to co-infect SF9 insect cells. Insect cell pellets were lysed in a buffer containing 25 mM Tris pH8.0, 300 mM NaCl, 0.5 mM TCEP, complete EDTA-free protease inhibitor (Roche), 0.1% NP-40. The supernatant from the lysate was incubated with FLAG® M2 antibody resin (Sigma). The resin was washed on the chromatography column and eluted with 0.2 mg/ml FLAG peptide. The elute was incubated with omnicleave nucleases (Epicentre Technologies) at 4° C. overnight, then concentrated and loaded onto a Superdex 200 (GE Healthcare) column. The Superdex 200 column was eluted with 25 mM Tris pH8.0, 150 mM NaCl, 0.5 mM TCEP. Fractions containing the PRC2 complex were pooled.
A. Compound preparation • 1.
B. Reagent preparation • 1. […] Dilute TCA to 20% in DI water
C. Enzyme reaction • 1. […] Some compounds were tested under high SAM conditions.
D. Data analysis • 1. IC50 values were determined by fitting the data to a 4-parameter IC50 equation using proprietary curve fitting software. • 2. For compounds tested under high SAM conditions, Ki^app values were obtained by fitting the dose response curve to a model for competitive inhibition using proprietary curve fitting software. Preparation of HeLa Oligonucleosomes: Reagents • Cell Pellet: 15 L HeLa S3 (Accelgen)+6 L HeLa S3 (in house) • Mnase (Worthington Biochemicals) Equipment • SW-28 Rotor • Dounce Homogenizer/B Pestle Buffers • Lysis: 20 mM Hepes pH 7.5, 0.25M Sucrose, 3 mM MgCl2, 0.5% Nonidet P-40, 0.5 mM TCEP, 1 Roche Protease Tablet • B: 20 mM Hepes pH7.5, 3 mM MgCl2, 0.5 mM EDTA, 0.5 mM TCEP, 1 Roche Protease Tablet • MSB: 20 mM Hepes pH7.5, 0.4 M NaCl, 1 mM EDTA, 5% v/v Glycerol, 0.5 mM TCEP, 0.2 mM PMSF • LSB: 20 mM Hepes pH7.5, 0.1M NaCl, 1 mM EDTA, 0.5 mM TCEP, 0.2 mM PMSF • NG: 20 mM Hepes pH7.5, 1 mM EDTA, 0.4 m NaCl, 0.2 mM PMSF, 0.5 mM TCEP • Storage: 20 mM Hepes pH7.5, 1 mM EDTA, 10% Glycerol, 0.2 mM PMSF, 0.5 mM TCEP Protocol

EZH2 Mutant Y641N = EZH2 Mutant Y641N (Homo sapiens (Human), UniProt Q15910, Y641N); assay: EZH2 Mutant Y641N nucleosome assay; settings: PRC2 4-protein complex 6 nM, 1.5 μM SAM, HeLa oligonucleosomes
Chain of EZH2 Mutant Y641N (Q15910 whole entry Y641N, looked up): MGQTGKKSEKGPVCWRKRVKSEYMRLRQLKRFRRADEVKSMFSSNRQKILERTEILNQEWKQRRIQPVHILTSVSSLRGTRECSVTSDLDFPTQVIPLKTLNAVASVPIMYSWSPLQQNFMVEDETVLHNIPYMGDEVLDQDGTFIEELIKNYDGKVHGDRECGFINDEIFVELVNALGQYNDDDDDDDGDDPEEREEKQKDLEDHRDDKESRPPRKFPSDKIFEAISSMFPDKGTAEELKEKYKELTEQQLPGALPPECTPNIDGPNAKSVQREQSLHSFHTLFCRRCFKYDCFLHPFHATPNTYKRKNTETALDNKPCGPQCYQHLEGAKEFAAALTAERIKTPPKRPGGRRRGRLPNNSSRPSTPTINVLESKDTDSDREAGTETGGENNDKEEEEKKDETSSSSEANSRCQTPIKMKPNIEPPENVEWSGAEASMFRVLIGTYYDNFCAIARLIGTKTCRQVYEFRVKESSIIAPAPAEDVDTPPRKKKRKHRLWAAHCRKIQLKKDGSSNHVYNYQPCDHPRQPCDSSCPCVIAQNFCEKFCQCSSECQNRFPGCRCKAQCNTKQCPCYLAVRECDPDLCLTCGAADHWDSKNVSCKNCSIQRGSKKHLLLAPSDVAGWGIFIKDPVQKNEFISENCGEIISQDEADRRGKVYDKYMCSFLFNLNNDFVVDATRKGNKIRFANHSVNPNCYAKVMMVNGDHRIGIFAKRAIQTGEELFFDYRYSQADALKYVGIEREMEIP
Chain of EZH2 Mutant Y641N (O75530 whole entry partner, looked up): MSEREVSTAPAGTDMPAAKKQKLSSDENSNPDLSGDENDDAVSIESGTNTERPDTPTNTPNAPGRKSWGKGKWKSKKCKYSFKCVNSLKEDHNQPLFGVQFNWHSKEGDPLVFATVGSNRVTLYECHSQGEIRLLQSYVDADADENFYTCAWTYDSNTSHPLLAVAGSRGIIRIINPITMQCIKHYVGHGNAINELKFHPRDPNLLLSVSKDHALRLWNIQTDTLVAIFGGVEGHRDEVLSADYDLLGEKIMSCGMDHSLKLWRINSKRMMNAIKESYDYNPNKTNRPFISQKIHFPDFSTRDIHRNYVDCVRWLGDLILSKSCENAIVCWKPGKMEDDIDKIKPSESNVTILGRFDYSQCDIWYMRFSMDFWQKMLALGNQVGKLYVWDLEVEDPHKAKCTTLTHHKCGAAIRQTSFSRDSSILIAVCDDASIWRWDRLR
Chain of EZH2 Mutant Y641N (Q15022 whole entry partner, looked up): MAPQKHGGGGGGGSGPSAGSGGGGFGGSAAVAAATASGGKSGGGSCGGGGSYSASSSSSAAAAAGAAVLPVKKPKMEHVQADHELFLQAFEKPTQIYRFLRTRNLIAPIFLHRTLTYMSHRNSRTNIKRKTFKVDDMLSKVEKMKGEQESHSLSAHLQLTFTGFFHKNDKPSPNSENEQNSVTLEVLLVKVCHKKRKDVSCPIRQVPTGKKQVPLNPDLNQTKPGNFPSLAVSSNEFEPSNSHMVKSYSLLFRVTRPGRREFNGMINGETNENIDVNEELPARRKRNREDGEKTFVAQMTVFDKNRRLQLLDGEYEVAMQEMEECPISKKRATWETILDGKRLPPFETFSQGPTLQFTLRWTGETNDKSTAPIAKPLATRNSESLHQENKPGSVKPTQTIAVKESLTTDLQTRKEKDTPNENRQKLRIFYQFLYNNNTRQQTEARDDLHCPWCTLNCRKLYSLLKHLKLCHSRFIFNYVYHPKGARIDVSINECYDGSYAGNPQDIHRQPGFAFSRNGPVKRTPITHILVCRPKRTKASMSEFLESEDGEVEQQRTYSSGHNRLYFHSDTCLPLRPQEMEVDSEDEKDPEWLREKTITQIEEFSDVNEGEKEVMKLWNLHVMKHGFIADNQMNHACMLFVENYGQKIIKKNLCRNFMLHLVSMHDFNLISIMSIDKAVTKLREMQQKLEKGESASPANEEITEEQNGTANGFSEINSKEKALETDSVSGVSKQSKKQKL
Chain of EZH2 Mutant Y641N (Q09028 whole entry partner, looked up): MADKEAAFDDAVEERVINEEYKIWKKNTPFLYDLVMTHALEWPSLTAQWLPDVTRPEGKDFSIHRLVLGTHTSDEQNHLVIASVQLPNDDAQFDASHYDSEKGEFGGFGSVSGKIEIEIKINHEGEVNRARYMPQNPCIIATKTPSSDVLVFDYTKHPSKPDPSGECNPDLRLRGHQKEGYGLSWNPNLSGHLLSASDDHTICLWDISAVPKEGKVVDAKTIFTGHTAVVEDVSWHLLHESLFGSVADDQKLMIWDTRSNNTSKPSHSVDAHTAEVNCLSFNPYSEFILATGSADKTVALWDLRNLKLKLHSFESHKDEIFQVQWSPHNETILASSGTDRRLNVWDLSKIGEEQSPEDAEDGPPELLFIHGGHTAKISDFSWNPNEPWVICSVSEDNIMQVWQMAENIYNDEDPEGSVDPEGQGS

WT EZH2 [2] = target: T1, WT EZH2; assay: WT EZH2 nucleosome assay (10X SAM, high SAM conditions); settings: 15 uM SAM, Ki app from competitive inhibition fit, read-out: WT EZH2 Nucleosome assay (10X SAM) Ki
[3] = WT EZH2 Nucleosome assay IC50 (μM)
[4] = EZH2 Mutant Y641N Nucleosome assay IC50 (μM)
[5] = read-out: WT EZH2 Nucleosome assay IC50
[6] = read-out: EZH2 Mutant Y641N Nucleosome assay IC50

T1 sequence (Q15910 whole entry, looked up): as the sequence (Q15910 whole entry Y641N, looked up) above, with N641Y counted along it
T1 sequence (O75530 whole entry partner, looked up): as the sequence (O75530 whole entry partner, looked up) above
T1 sequence (Q15022 whole entry partner, looked up): as the sequence (Q15022 whole entry partner, looked up) above
T1 sequence (Q09028 whole entry partner, looked up): as the sequence (Q09028 whole entry partner, looked up) above

Compound | IC50 (WT EZH2 [1]; [3]) | IC50 (EZH2 Mutant Y641N; [4]) | IC50 (WT EZH2 [1]; [5]) | IC50 (EZH2 Mutant Y641N; [6]) | Ki (WT EZH2 [2])
Cc1cc(C)c(CN2CCc3c(Cl)cc(C(C)CO)c(Cl)c3C2=O)c(=O)[nH]1 (racemic) [Example 17] | 0.035 µM | 0.125 µM | – | – | –
CCC(CO)c1cc(Cl)c2c(c1Cl)C(=O)N(Cc1c(C)cc(C)[nH]c1=O)CC2 (racemic) [Example 20] | 0.011 µM | 0.053 µM | – | – | –
Cc1cc(C)c(CN2CCc3c(Cl)cc(C(C)CN(C)CCO)c(Cl)c3C2=O)c(=O)[nH]1 (racemic) [Example 21] | – | – | 0.015 µM | 0.109 µM | –
Cc1cc(C)c(CN2CCc3c(Cl)cc(C(C)C4CCN(C(=O)CO)CC4)c(Cl)c3C2=O)c(=O)[nH]1 (racemic) [Example 24] | – | – | 0.004 µM | 0.008 µM | –
CCC(O)c1cc(Cl)c2c(c1Cl)C(=O)N(Cc1c(C)cc(C)[nH]c1=O)CC2 (racemic) [Example 25] | 0.084 µM | 0.693 µM | – | – | –
Cc1cc(C)c(CN2CCc3c(Cl)cc([C@@H](CO)[C@H]4CCOC4)c(Cl)c3C2=O)c(=O)[nH]1 (single isomer, unassigned) [Example 3, 5,8-dichloro-2-[(4,6-dimethyl-2-oxo-1,2-dihydropyridin-3-yl)methyl]-7-{(1S*)-2-hydroxy-1-[(3R*)-tetrahydrofuran-3-yl]ethyl}-3,4-dihydroisoquinolin-1(2H)-one] | 0.066 µM | – | – | – | –
Cc1cc(C)c(CN2CCc3c(Cl)cc(C(F)C4CCN(C(=O)CO)CC4)c(Cl)c3C2=O)c(=O)[nH]1 (single isomer, unassigned; (-)) [Example 9, (−)-5,8-dichloro-2-[(4,6-dimethyl-2-oxo-1,2-dihydropyridin-3-yl)methyl]-7-{fluoro[1-(hydroxyacetyl)piperidin-4-yl]methyl}-3,4-dihydroisoquinolin-1(2H)-one] | – | – | – | 0.035 µM | 5 nM
Cc1cc(C)c(CN2CCc3c(Cl)cc(C(C)N4CCOCC4)c(Cl)c3C2=O)c(=O)[nH]1 (single isomer, unassigned; (-)) [Example 91, (−)-5,8-dichloro-2-[(4,6-dimethyl-2-oxo-1,2-dihydropyridin-3-yl)methyl]-7-[1-(morpholin-4-yl)ethyl]-3,4-dihydroisoquinolin-1(2H)-one] | – | – | – | 0.023 µM | 1 nM
Cc1cc(C)c(CN2CCc3c(Cl)cc(C(CO)N4CC[C@@H](F)C4)c(Cl)c3C2=O)c(=O)[nH]1 (stereo partly drawn) [Example 5, 5,8-dichloro-2-[(4,6-dimethyl-2-oxo-1,2-dihydropyridin-3-yl)methyl]-7-{1-[(3R)-3-fluoropyrrolidin-1-yl]-2-hydroxyethyl}-3,4-dihydroisoquinolin-1(2H)-one] | – | – | – | 0.189 µM | 33 nM
Cc1cc(C)c(CN2CCc3c(Cl)cc([C@H](CO)[C@@H]4CCCO4)c(Cl)c3C2=O)c(=O)[nH]1 [Example 12, 5,8-dichloro-2-[(4,6-dimethyl-2-oxo-1,2-dihydropyridin-3-yl)methyl]-7-{(1R)-2-hydroxy-1-[(2S)-tetrahydrofuran-2-yl]ethyl}-3,4-dihydroisoquinolin-1(2H)-one] | – | – | – | 0.016 µM | 4 nM
Cc1cc(C)c(CN2CCc3c(Cl)cc([C@H](CO)[C@H]4CCCO4)c(Cl)c3C2=O)c(=O)[nH]1 [Example 13, 5,8-dichloro-2-[(4,6-dimethyl-2-oxo-1,2-dihydropyridin-3-yl)methyl]-7-{(1R)-2-hydroxy-1-[(2R)-tetrahydrofuran-2-yl]ethyl}-3,4-dihydroisoquinolin-1(2H)-one] | – | – | – | 0.018 µM | 3 nM
Cc1cc(C)c(CN2CCc3c(Cl)cc([C@@H](CO)[C@H]4CCCO4)c(Cl)c3C2=O)c(=O)[nH]1 [Example 45] | – | – | – | 0.345 µM | 103 nM
Cc1cc(C)c(CN2CCc3c(Cl)cc([C@@H](CO)[C@@H]4CCCO4)c(Cl)c3C2=O)c(=O)[nH]1 [Example 46] | – | – | – | 0.423 µM | 121 nM
Cc1cc(C)c(CN2CCc3c(Cl)cc(C(CO)N4CC[C@H](F)C4)c(Cl)c3C2=O)c(=O)[nH]1 (stereo partly drawn) [Example 58] | – | – | – | 0.513 µM | 57 nM
CC(=C1CNC1)c1cc(Cl)c2c(c1Cl)C(=O)N(Cc1c(C)cc(C)[nH]c1=O)CC2 [Example 74, 7-(1-(azetidin-3-ylidene)ethyl)-5,8-dichloro-2-((4,6-dimethyl-2-oxo-1,2-dihydropyridin-3-yl)methyl)-3,4-dihydroisoquinolin-1(2H)-one] | – | – | – | 0.051 µM | 5 nM
CC(=C1CN(C(=O)CO)C1)c1cc(Cl)c2c(c1Cl)C(=O)N(Cc1c(C)cc(C)[nH]c1=O)CC2 [Example 75, 5,8-dichloro-2-[(4,6-dimethyl-2-oxo-1,2-dihydropyridin-3-yl)methyl]-7-{1-[1-(hydroxyacetyl)azetidin-3-ylidene]ethyl}-3,4-dihydroisoquinolin-1(2H)-one] | – | – | – | 0.02 µM | 2 nM
CC(=O)N1CC(=C(C)c2cc(Cl)c3c(c2Cl)C(=O)N(Cc2c(C)cc(C)[nH]c2=O)CC3)C1 [Example 76] | – | – | – | 0.043 µM | 5 nM
CC(=C1CN(S(C)(=O)=O)C1)c1cc(C)c2c(c1Cl)C(=O)N(Cc1c(C)cc(C)[nH]c1=O)CC2 [Example 77] | – | – | – | 0.132 µM | 22 nM
COc1cc(C)[nH]c(=O)c1CN1CCc2c(C)cc(C(C)=C3CN(S(C)(=O)=O)C3)c(Cl)c2C1=O [Example 78] | – | – | – | 0.04 µM | 4 nM
Cc1cc(C)c(CN2CCc3c(Cl)cc(C(F)=C4CN(C(=O)CO)C4)c(Cl)c3C2=O)c(=O)[nH]1 [Example 79] | – | – | – | 0.133 µM | 17 nM
CC(=C1CCNCC1)c1cc(Cl)c2c(c1Cl)C(=O)N(Cc1c(C)cc(C)[nH]c1=O)CC2 [Example 80] | – | – | – | 0.007 µM | 1 nM
COc1cc(C)[nH]c(=O)c1CN1CCc2c(Cl)cc([C@H](OC)C3COC3)c(Cl)c2C1=O [Example 81, 5,8-dichloro-2-[(4-methoxy-6-methyl-2-oxo-1,2-dihydropyridin-3-yl)methyl]-7-[(R)-methoxy(oxetan-3-yl)methyl]-3,4-dihydroisoquinolin-1(2H)-one] | – | – | – | 0.003 µM | 0.2 nM
COc1cc(C)[nH]c(=O)c1CN1CCc2c(Cl)cc([C@@H](OC)C3COC3)c(Cl)c2C1=O [Example 82, 5,8-dichloro-2-[(4-methoxy-6-methyl-2-oxo-1,2-dihydropyridin-3-yl)methyl]-7-[(S)-methoxy(oxetan-3-yl)methyl]-3,4-dihydroisoquinolin-1(2H)-one] | – | – | – | 0.131 µM | 6 nM
COc1cc(C)[nH]c(=O)c1CN1CCc2c(C)cc([C@H](OC)[C@@H]3CCOC3)c(Cl)c2C1=O [Example 83, 8-chloro-2-[(4-methoxy-6-methyl-2-oxo-1,2-dihydropyridin-3-yl)methyl]-7-{(R)-methoxy[(3R)-tetrahydrofuran-3-yl]methyl}-5-methyl-3,4-dihydroisoquinolin-1(2H)-one] | – | – | – | 0.004 µM | 0.4 nM
COc1cc(C)[nH]c(=O)c1CN1CCc2c(C)cc([C@@H](OC)[C@H]3CCOC3)c(Cl)c2C1=O [Example 86, 8-chloro-2-[(4-methoxy-6-methyl-2-oxo-1,2-dihydropyridin-3-yl)methyl]-7-{(S)-methoxy[(3S)-tetrahydrofuran-3-yl]methyl}-5-methyl-3,4-dihydroisoquinolin-1(2H)-one] | – | – | – | 0.637 µM | 61 nM
COC(c1cc(Cl)c2c(c1Cl)C(=O)N(Cc1c(C)cc(C)[nH]c1=O)CC2)C(C)O (stereo not drawn) [Example 102] | – | – | – | 0.178 µM | 18 nM
COc1cc(C)[nH]c(=O)c1CN1CCc2c(Cl)cc([C@H](CO)[C@H]3CCCO3)c(Cl)c2C1=O [Example 105] | – | – | – | 0.013 µM | 0.8 nM
COc1cc(C)[nH]c(=O)c1CN1CCc2c(Cl)cc([C@H](CO)[C@@H]3CCCO3)c(Cl)c2C1=O [Example 106] | – | – | – | 0.008 µM | 0.6 nM
COC(c1cc(Cl)c2c(c1Cl)C(=O)N(Cc1c(C)cc(C)[nH]c1=O)CC2)C1CCN(C(=O)CO)C1 (stereo not drawn) [Example 113] | – | – | – | 0.005 µM | 0.8 nM
